Paper PMC2800117, “The hemolytic and cytolytic activities of Serratia marcescens phospholipase A (PhlA) depend on lysophospholipid production by PhlA” (BMC Microbiology, 2009)

Target: T1, Phospholipase A2 derived from bovine pancreas (PLA2) (Bos taurus, UniProt P00593)
T1 construct: gene PLA2G1B; commercial native enzyme from bovine pancreas (Sigma)
Assay: fluorescence enhancement (BODIPY FL release, […] nm)
Assay type: biochemical
Details: 10 mM Tris-HCl pH 8.0, 100 mM NaCl, 10 mM CaCl2, 45 nM substrate, 6 min; labelled compound; enzyme used as control

T1 sequence (P00593 23-145): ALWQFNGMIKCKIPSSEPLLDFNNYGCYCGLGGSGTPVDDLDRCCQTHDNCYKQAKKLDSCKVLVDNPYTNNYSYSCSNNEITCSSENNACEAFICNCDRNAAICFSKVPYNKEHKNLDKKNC

Structure (SMILES): CC1=CC(C)=[N+]2C1=Cc1ccc(CCCCCCCCCCC(=O)OC[C@H](COP(=O)([O-])OCC[N+](C)(C)C)OC(=O)CCCCCCCCCCc3ccc4n3[B-](F)(F)[N+]3=C(C)C=C(C)C3=C4)n1[B-]2(F)F [bis-BODIPY FL C11-PC]
- fluorescence enhancement (BODIPY FL release, 485/530 nm): S. marcescens PhlA and bovine pancreatic PLA2 released fluorescent fatty acids from bis-BODIPY FLC11-PC
